Earlier results on 2 compounds are cited in patent publication US20160296513A1 (Teva Pharmaceutical Industries Ltd., priority 2013, published 2016).

For data set [1] the following is noted: in vivo.
For data set [2], the system named is genes related to antigen presentation and corresponding inflammatory pathways. The conditions noted are these: mainly via the NFkB pathway.
Data set [3] relates to relapsing-remitting multiple sclerosis (RRMS). The conditions noted are these: CARE-MS I, vs interferon beta-1a.
The test system of data set [4] is first-line treatment-refractory RRMS. Conditions: CARE-MS II.
Data set [5] relates to multiple sclerosis patients. Conditions: human, in vivo.

Consider `CCN(C(=O)c1c(O)c2c(Cl)cccc2n(C)c1=O)c1ccccc1` [Laquinimod, 5-chloro-N-ethyl-4-hydroxy-1-methyl-2-oxo-N-phenyl-1,2-dihydroquinoline-3-carboxamide], for which, in data set [1], the oral bioavailability result is on record as “high”. Further, in data set [2], the “suppression of genes related to antigen presentation and corresponding inflammatory pathways” value was “induced suppression”. In addition, the “neurodegeneration and non-relapse-dependent disability progression” value in the data set on MS (in MS) was “showed potential for slowing neurodegeneration and reducing non-relapse-dependent disability progression”. In addition, the “Confirmed Disease Progression (CDP)” value with MS (unexplained by inflammatory markers) is on record as “sustain Confirmed Disease Progression (CDP)”.
Take “Alemtuzumab: recombinant DNA-derived humanized monoclonal IgGlx antibody raised against CD52”: in data set [3] (12 mg/day IV 5 days at Month 0, 3 days at Month 12), the relapse result is recorded as “reduction of relapse”. Besides, the disability endpoints entry in data set [3] is reported as “did not show benefit”. Further, in data set [4], the accumulation of disability entry is reported as “sustain accumulation of disability” and the relapse rates result was “reduce relapse rates”. In data set [5], the “depletion repletion pattern for T cells, B cells and monocytes” value is reported as “well characterized depletion repletion pattern”; the “effect on inflammatory axis” value is “large and sustained”.
